# Starred links: 1 amine or outer side, 2 acyl side, 3 side chain; linkers in the order of their positions; H or OH if unused. Residues, ends and D or L forms follow the SMILES beside them. *: point of attachment. X1 = CC(C)(C)c1cc(C(=O)*)cc(C(C)(C)C)c1O; Suc = O=C(CCC(=O)[*:2])[*:1]
# Tests used:
# [1] = tested on: surfactant-deficient lavaged adult rat lungs; assay: Isolated rat lavaged lung model (pressure-volume deflation curves); type: in vivo; conditions: for effect on the pressure-volume (P-V) curve of the lavaged lung: statement in words
# Source text: Methods of testing the synthetic surfactant preparations for efficacy are well known in the art. For example, the synthetic surfactant preparations of the present invention can be tested in any appropriate manner such as in the adult rat lung model (Ikegami, et al., (1979) Pediatr. Res. 13, 777-780).
# Pressure-volume characteristics of surfactant-depleted rat lungs are similar to those of lungs of infants with hyaline membrane disease and restoration of the pressure-volume relationship of the lung to normal is related to the amount of surfactant instilled in a dose dependent manner. (Bermel, M. S., et al., Lavaged excised rat lungs as a model of surfactant deficiency, Lung 162:99-113 (1984)).
# Isolated Rat Lavaged Lung Model. The experimental procedures for animal preparation, pressure-volume curve registration and lung lavage were adapted from those described by Ikegami et al., Pediatr. Res. 11:178-182 (1977) and Pediatr. Res. 13:777-780 (1979, and Bermel et al, Lung 162:99-113 (1984). Male Sprague Dawley rats (200-250 g) were anesthetized with sodium pentobarbital and exsanguinated. The trachea was cannulated and the thoracic organs were removed en bloc. After removal of the adventitious tissue, the trachea and lungs (~2 g) were suspended in saline (0.9%), placed in a vacuum chamber, and degassed according to the procedure of Stengel et al. the degassed lungs were suspended in saline in a 37° C., jacketed reservoir and the tracheal cannula was connected both to a water manometer and a glass syringe by a T-tube. The glass syringe was placed in an infusion/withdrawal pump. Lungs were rapidly inflated with air to 30 cm H2 O pressure at the rate of 10 ml/min to minimize air trapping, and were maintained at this pressure for 10 min by intermittently adding air to the lungs. The total volume of air infused was recorded as the total lung capacity (TLC) which was generally 14-15 ml. The lungs were then deflated at a rate of 2.5 ml/min until zero pressure was attained. During deflation, pressure was read from the water manometer at 1 cm intervals and recorded. […] After degassing and equilibration, the lungs were rendered surfactant-deficient by repeated lavage with 5 ml/g lavage buffer (0.9% NaCl, 10 mM HEPES, pH 7.4). The procedures of degassing, equilibrating, and lavaging were repeated (15-20 times) until the pressure-volume curve had become distinctly sigmoidal in shape and the volume of air remaining in the lungs at 5 cm H2 O pressure was less than or equal to 3 ml. At this point, the lungs were considered surfactant-deficient. For testing, 2 ml of 0.9% NaCl, 10 mM HEPES buffer, pH 7.4, were added to the dry lung surfactants (25 mg of phospholipid; 100-125 mg/kg) and the mixture was vortexed, flushed with nitrogen and incubated for 1 h at 45° C. The mixture was then vortexed again, degassed if foamy, and 2 ml of the test mixture were introduced into and withdrawn from the lungs four times by syringe. When the test mixture was reintroduced to the lungs for the fifth time, it was allowed to remain in the lungs. This procedure was adopted to encourage even distribution of the material throughout the lung. The lungs were degassed, allowed to equilibrate at 37° C. for 5 min, and a P-V measurement was performed. […] The deflation limbs of the pressure-volume (P-V) curves in adult rat lungs were analyzed by calculating the total lung capacities (%TLC) at 5 and 10 cm H2 O pressure (PC5 and PC10).
# [2] = Surface tension of an oscillating bubble in a pulsating bubble surfactometer; type: physicochemical; conditions: after 10 min of pulsing, 37° C.
# Method: Surface Tension Measurements. The minimum and maximum surface tension of an oscillating bubble were measured on samples at 37° C. with a cycle rate of 20 per min in a pulsating bubble surfactometer (PBS, Electronetics Corp.), essentially as described by Enhorning, J. Appl. Physiol 43:198-203 (1977). The plastic cample chamber was rinsed with a dilute solution of dishwashing detergent, thoroughly rinsed with water and dried under a stream of N2 prior to use.
# [3] = CD spectra: conformation of peptides in water and TFE; type: physicochemical; conditions: fits ±3% (SEM of fit)
# Method: CD Spectra. Circular dichroic (CD) spectra of samples in 1 mm circular cuvettes were recorded at room temperature on a Jasco J-500A Spectropolarimeter with 2 nm slit width. The CD spectrum of buffer was subtracted from the CD spectrum of the sample after each scan. The scan rate is 2 nm/min and the time constant was 8 sec. Data was collected at 0.04 nm intervals and averaged over a 0.2 nm interval.
# [4] = tested on: soy phosphatidyl-choline (PC); assay: Antioxidant activity: inhibition of Fe-initiated lipid peroxidation (TBARs); type: biochemical
# Method: Antioxidant Activity. Peptides were dissolved in trifluoroethanol (TFE) and mixed with soy phosphatidyl-choline (PC) in chloroform. After drying under a N2 stream, the mixture was resuspended in ethanol and injected into buffer (50 mM NaCl, 50 mM Tris-HCl, pH 7.0) to obtain a final concentration of 0.5 mM phospholipid. Peroxidation was initiated with 50 μM Fe^2+ plus a mixture of 50 μM Fe^3+ and 250 μM histidine. At intervals over a period of 15 min at 37° C., 1 mL samples of the reaction mixture were taken for determination of TBARs (thiobarbituric acid reactive substances). Two mL of a mixture of 2 parts of 0.67% thiobarbituric acid/0.05N NaOH and 1 part of 10% trichloroacetic acid and 0.05 mL of 2% butylated hydroxytoluene were added. Reaction proceeded for 30 min at 100° C. The tubes were then cooled, centrifuged for 15 min at 3000 rpm and transferred to acrylic cuvettes. The differences in absorbance at 532 nm and 700 nm (to correct for light scattering) were measured and the TBARs were calculated in units of malondialdehyde equivalents using a molar extinction coefficient of 1.56×10^5 M^-1 cm^-1.
# [5] = water, fit to standard spectra of Greenfield & Fasman
γmin (minimum surface tension) ([2]; unsonicated liposomes),"γmin (minimum surface tension) ([2]; mixture with DPPC, 20 cycles per min)",Structure (SMILES),"PC5 (% TLC at 5 cm H2O) ([1]; no dose given, mean ± SEM, n=4)","PC10 (% TLC at 10 cm H2O) ([1]; no dose given, mean ± SEM, n=4)","restoration (based on PC5) ([1]; no dose given, relative to sufficient and deficient measurements on the same lungs, mean ± SEM)",effect on the pressure-volume (P-V) curve of the lavaged lung [1],"Conformation based on CD spectra: α ([3]; TFE, first TFE column)","Conformation based on CD spectra: α (second TFE column) ([3]; TFE, second TFE column)","Conformation based on CD spectra: α [3, 5]","Conformation based on CD spectra: β [3, 5]","antioxidant activity (inhibition of lipid peroxidation) ([4]; in soy PC mixtures, 50 μM Fe2+ plus 50 μM Fe3+/250 μM histidine, 37° C., 15 min)","time for which oxidation is totally inhibited ([4]; 0.6% (by weight), added to WMAP10 in soy PC mixtures, data not shown)"
38 mN/m,,"CCCCCCCCCCCCCCCC(=O)OC[C@H](COP(=O)([O-])OCC[N+](C)(C)C)OC(=O)CCCCCCCCCCCCCCC [DPPC, dipalmitoylphosphatidylcholine]",13 ± 1 % TLC,31 ± 2 % TLC,-11 ± 8%,no significant effect,,,,,,
,,"CC(C)C[C@H](NC(=O)CCC(=O)O)C(=O)N[C@@H](CC(C)C)C(=O)N[C@@H](CCC(=O)O)C(=O)N[C@@H](CCCCN)C(=O)N[C@@H](CC(C)C)C(=O)N[C@@H](CC(C)C)C(=O)N[C@@H](CCC(=O)O)C(=O)N[C@@H](CCCCNC(=O)c1cc(C(C)(C)C)c(O)c(C(C)(C)C)c1)C(=O)N[C@@H](CC(C)C)C(=O)N[C@@H](CCCCN)C(N)=O [HBB-LysMAP10, Suc-Leu-Leu-Glu-Lys-Leu-Leu-Glu-Ne-HBB-Lys-Leu-Lys-NH2] (Suc-LLEKLLEK(X1)LK-NH2)",,,,,78,0,59,4,effective antioxidants,
,slightly increased,CC(C)(Sc1cc(C(C)(C)C)c(O)c(C(C)(C)C)c1)Sc1cc(C(C)(C)C)c(O)c(C(C)(C)C)c1 [Probucol],,,,does not diminish the activity,,,,,,at least 8 min
